Results reported in article PMC10384862, “[^212Pb]Pb-eSOMA-01: A Promising Radioligand for Targeted Alpha Therapy of Neuroendocrine Tumors” (Pharmaceuticals, 2023).
Where two headings read alike, the source gives them in different places. One block for each compound: values may come before it.

Key:
[1] = LogD7.4 by shake-flask method (n-octanol/PBS); assay type: physicochemical; settings: ^203Pb-labeled compound; n-octanol/PBS pH 7.4; n = 3
Protocol: Distribution coefficients (LogD7.4) were determined by the shake-flask method. A sample containing the ^203Pb-labeled compound (~1 MBq) was added to a vial containing PBS (600 µL, pH 7.4) and n-octanol (600 µL). The vial was vortexed vigorously and then centrifuged at 10,000 rpm for 10 min for phase separation. Samples (100 µL) of the n-octanol and aqueous phases were taken and measured by a gamma counter. The LogD7.4 value was calculated by using the equation: LogD7.4 = log [(counts in the n-octanol phase)/(counts in the aqueous phase)]. Measurements were performed in triplicate.

[2] = In vitro stability in PBS; assay type: physicochemical; settings: 37 °C, n = 1
Protocol: The ^203Pb-labeled compounds (~ 2 MBq) or the ^212Pb-labeled compounds (~ 70 kBq) were incubated in 300 µL of phosphate buffered saline (PBS; 0.1 M, pH 7.4) or mouse serum at 37 °C. The stability of the radiolabeled peptides was monitored at 1, 4, and 24 h post-incubation. The samples in PBS were directly analyzed by radio-HPLC without any pretreatment. However, samples of mouse serum were mixed with an equal volume of acetonitrile to precipitate the proteins. The solution was centrifuged twice for 5 min at 13,000 rpm, and the supernatant was analyzed by radio-HPLC using Method 1 for lead-203 and Method 2 for lead-212.

[3] = Biodistribution study with lead-212; assay type: in vivo, mouse; settings: mouse, intravenous; for tissue uptake at 1 h: 1 h p.i.; for tissue uptake at 4 h: 4 h p.i.
Protocol: (§1) Six-week-old male Balb/c nu/nu-specific and opportunistic pathogen-tree (SOPF) mice (Janvier Labs, Le Genest-Saint-Isle, France) were housed in individually ventilated cages, with four mice per cage. Upon arrival, the mice were acclimated for 1 week with access to food and water ad libitum. Mice were subcutaneously inoculated on the right shoulder with NCI-H69 cells (5 × 10^6 cells suspended in 100 μL of 1/3 Matrigel (Corning Inc.; Corning, NY, USA) and 2/3 Hank’s balanced salt solution (Gibco; Paisley, UK). NCI-H69 xenografts were allowed to grow for 3 weeks. Tumor sizes were 391 ± 173 mm^3 at the start of the studies.
(§2) Biodistribution studies were performed to determine tumor and organ uptake of [^212Pb]Pb-DOTAM-TATE, [^212Pb]Pb-eSOMA-01, and [^212Pb]Pb-eSOMA-02. Animals (n = 4 for each time point) were injected intravenously (i.v.) with an average of 100 kBq/0.5 nmol. At 3 selected time points (1, 4, and 24 h) p.i., blood was collected via retro-orbital puncture under isoflurane/O2 anesthesia, after which the mice were sacrificed via cervical dislocation. The tumor and organs of interest (heart, lungs, liver, spleen, stomach, large intestine, small intestine, pancreas, kidneys, muscle, skin, and bone) were excised, washed in PBS, and blotted dry. To confirm receptor specificity of radioligand uptake, mice (n = 3) were co-injected with an excess (25 nmol) of the respective unlabeled peptide, and uptake in the organs of interest was determined at 24 h p.i. To determine the total injected radioactivity per animal, a calibration curve with lead-212 was established using the gamma counter. The percentage of injected dose per gram (% ID/g) was determined for each tissue sample and corrected for both the injected volume and the % ID present at the injection site (the tail).

[4] = test system: H69-xenograft Balb/c nu/nu mice; assay: Biodistribution study with lead-212; assay type: in vivo, mouse; settings: 1 h p.i.; n = 4
Protocol: as §1, §2

[5] = blood, 100 kBq, n = 4, read-out: Blood uptake
[6] = intestines, 100 kBq, n = 4, read-out: Intestines uptake
[7] = kidneys, 100 kBq, n = 4, read-out: Kidneys uptake
[8] = liver, 100 kBq, n = 4, read-out: Liver uptake
[9] = lungs, 100 kBq, n = 4, read-out: Lungs uptake
[10] = pancreas, 100 kBq, n = 4, read-out: Pancreas uptake
[11] = spleen, 100 kBq, n = 4, read-out: Spleen uptake
[12] = stomach, 100 kBq, n = 4, read-out: Stomach uptake
[13] = tumor, 100 kBq, n = 4, read-out: Tumor uptake

logD [1]: -1.36 ± 0.06
Stability in PBS, intact labeled ligand ([2]; ^203Pb-labeled, 1 h): 70%
Stability in PBS, intact labeled ligand ([2]; ^203Pb-labeled, 4 h): 40%
Stability in PBS, intact labeled ligand ([2]; ^203Pb-labeled, 24 h): 15%
remaining at 1 h ([2]; phosphate buffered saline, pH 7.4, ^203Pb-labeled, 1 h, read-out: Stability in PBS, intact labeled ligand): 70%
remaining at 24 h ([2]; phosphate buffered saline, pH 7.4, ^203Pb-labeled, 24 h, read-out: Stability in PBS, intact labeled ligand): 15%
SMILES: C[C@@H](O)[C@H](NC(=O)[C@@H]1CSSC[C@H](NC(=O)[C@@H](Cc2ccccc2)NC(=S)Nc2ccc(CC3CN(CC(N)=O)CCN(CC(N)=O)CCN(CC(N)=O)CCN3CC(N)=O)cc2)C(=O)N[C@@H](Cc2ccc(O)cc2)C(=O)N[C@H](Cc2c[nH]c3ccccc23)C(=O)N[C@@H](CCCCN)C(=O)N[C@@H]([C@@H](C)O)C(=O)N1)C(=O)O (stereo partly drawn) [[^203Pb]Pb-eSOMA-03, metal not drawn]

Stability in PBS, intact labeled ligand ([2]; ^212Pb-labeled, 1 h): 97%
Stability in PBS, intact labeled ligand ([2]; ^212Pb-labeled, 4 h): 95%
Stability in PBS, intact labeled ligand ([2]; ^212Pb-labeled, 24 h): 95%
tissue uptake at 1 h [3, 5]: 1.44 ± 0.24 %ID/g
tissue uptake at 4 h [3, 5]: 0.01 ± 0.02 %ID/g
tissue uptake at 4 h ([3]; bone, 100 kBq, n = 4, read-out: Bones uptake): 0.03 ± 0.05 %ID/g
tissue uptake at 1 h ([3]; heart, 100 kBq, n = 4, read-out: Heart uptake): 0.54 ± 0.21 %ID/g
tissue uptake at 1 h [3, 6]: 2.24 ± 1.05 %ID/g
tissue uptake at 4 h [3, 6]: 0.67 ± 0.21 %ID/g
tissue uptake at 24 h ([3]; intestines, 100 kBq, 24 h p.i., n = 4, read-out: Intestines uptake): 0.13 ± 0.09 %ID/g
tissue uptake at 24 h ([3]; intestines, 24 h block: co-injection of excess (25 nmol) unlabeled peptide, read-out: Intestines uptake): 0.03 ± 0.03 %ID/g
tissue uptake at 1 h [3, 7]: 81.1 ± 14.3 %ID/g
tissue uptake at 4 h [3, 7]: 50.5 ± 3.24 %ID/g
tissue uptake at 24 h ([3]; kidneys, 100 kBq, 24 h p.i., n = 4, read-out: Kidneys uptake): 28.2 ± 9.41 %ID/g
tissue uptake at 24 h ([3]; kidneys, 24 h block: co-injection of excess (25 nmol) unlabeled peptide, read-out: Kidneys uptake): 37.9 ± 9.17 %ID/g
tissue uptake at 1 h [3, 8]: 3.96 ± 0.37 %ID/g
tissue uptake at 4 h [3, 8]: 3.09 ± 0.7 %ID/g
tissue uptake at 24 h ([3]; liver, 100 kBq, 24 h p.i., n = 4, read-out: Liver uptake): 1.44 ± 0.94 %ID/g
tissue uptake at 24 h ([3]; liver, 24 h block: co-injection of excess (25 nmol) unlabeled peptide, read-out: Liver uptake): 0.83 ± 0.87 %ID/g
tissue uptake at 1 h [3, 9]: 3.49 ± 0.7 %ID/g
tissue uptake at 4 h [3, 9]: 0.99 ± 0.24 %ID/g
tissue uptake at 24 h ([3]; lungs, 100 kBq, 24 h p.i., n = 4, read-out: Lungs uptake): 0.2 ± 0.21 %ID/g
tissue uptake at 1 h [3, 10]: 6.41 ± 0.7 %ID/g
tissue uptake at 4 h [3, 10]: 1.25 ± 0.27 %ID/g
tissue uptake at 24 h ([3]; pancreas, 100 kBq, 24 h p.i., n = 4, read-out: Pancreas uptake): 0.41 ± 0.37 %ID/g
tissue uptake at 4 h ([3]; skin, 100 kBq, n = 4, read-out: Skin uptake): 0.25 ± 0.33 %ID/g
tissue uptake at 1 h [3, 11]: 0.59 ± 0.06 %ID/g
tissue uptake at 4 h [3, 11]: 0.39 ± 0.27 %ID/g
tissue uptake at 1 h [3, 12]: 3.74 ± 0.66 %ID/g
tissue uptake at 4 h [3, 12]: 1.17 ± 0.35 %ID/g
tissue uptake at 24 h ([3]; stomach, 100 kBq, 24 h p.i., n = 4, read-out: Stomach uptake): 0.36 ± 0.27 %ID/g
tissue uptake at 24 h ([3]; stomach, 24 h block: co-injection of excess (25 nmol) unlabeled peptide, read-out: Stomach uptake): 0.14 ± 0.28 %ID/g
tissue uptake at 1 h [3, 13]: 7.93 ± 2.14 %ID/g
tissue uptake at 4 h [3, 13]: 7.45 ± 0.29 %ID/g
tissue uptake at 24 h ([3]; tumor, 100 kBq, 24 h p.i., n = 4, read-out: Tumor uptake): 1.02 ± 0.09 %ID/g
Stomach uptake [4]: 3.7 % ID/g
SMILES: C[C@@H](O)[C@H](NC(=O)[C@@H]1CSSC[C@H](NC(=O)[C@@H](Cc2ccccc2)NC(=O)CN2CCC(NC(=O)CN3CCN(CC(N)=O)CCN(CC(N)=O)CCN(CC(N)=O)CC3)CC2)C(=O)N[C@@H](Cc2ccc(O)cc2)C(=O)N[C@H](Cc2c[nH]c3ccccc23)C(=O)N[C@@H](CCCCN)C(=O)N[C@@H]([C@@H](C)O)C(=O)N1)C(=O)O [[^212Pb]Pb-eSOMA-02, metal not drawn]
